According to patent US8481459B2, “Chemical inhibitors of ethylene biosynthesis” (Academia Sinica, priority 2010, dated 2013):

System: gene expression in etiolated eto1-4 seedlings
Assay: Transcriptional profiling (ATH1 GeneChip microarray) of etiolated eto1-4 seedlings
Type: in vivo, Arabidopsis thaliana
Description: For chemical treatments, seeds were sown on 0.5×MS agar medium supplemented with 10 μM chemicals (AVG, compounds 9393, 9370, and 7303) or DMSO (as control). Arabidopsis seeds were stratified in the dark at 4° C. for 4 days, then germinated in the dark for 3 days at 22° C. Approximately 2,000 etiolated seedlings of the wild type or eto1-4 were used to collect tissues for preparation of total RNA in each microarray experiment with Arabidopsis ATH1 GeneChip (Affymetrix). Extraction of RNA followed an established protocol (Chang, et al. (1993) Plant Mol. Biol. Rep. 11, 113-117). Total RNA (10 μg) was used to prepare biotinylated cRNA for hybridization to ATH1 GeneChip in the experiments disclosed herein. Experiments were repeated by 2 independent biological duplicates, and candidate genes present in both experiments were selected for further analysis. The MASS method was used for data analysis and normalization by all sample medium. Candidate genes were selected by the following criteria. First, genes with 1.5-fold differential expression between the wild type and eto1-4 were selected as the master gene pool, which was then used for comparison in treatments with AVG and individual exemplary compounds. Data were presented in hierarchical clustering and Venn diagram format. Agilent GeneSpring GX and Bioconductor software were used to analyze the expression profile data. Gene Ontology descriptions were generated by GeneSpring GX and further referred to the TAR GO database. Raw data are available in the GEO database (http://www.ncbi.nlm.nih.gov/geo) with Accession no. GSE20897.
The filtered and normalized expression data set from 22810 probes on the ATH1 Genechip was used for hierarchical clustering of gene expression profiles for comparison between AVG and the exemplary invention compounds in eto1-4. It was identified that 1,446 genes show at least 1.5-fold difference in expression between the WT and eto1-4 and used them as the master gene pool for clustering analysis (FIG. 7A). […] These genes likely contribute to the etiolated phenotype of eto1-4 by responding to elevated endogenous ethylene. To determine whether the exemplary compounds have specific r overlapping functions with AVG to suppress the eto1-4 phenotype, genes that are regulated by individual exemplary invention compounds and AVG for Venn diagram analysis were clustered (FIG. 7B). More than 63% of genes (356/561 for compound 9393; 389/561 for compound 9370; 399/561 for compound 7303; FIG. 7B) with expression associated with AVG were co-regulated by the exemplary invention compounds, which indicates an overlap function in suppression of the ethylene phenotype in eto1-4. […] Next genes co-regulated by all of the exemplary invention compounds and AVG were examined by performing a clustering analysis using the co-regulated genes identified in FIG. 7B: 356 (compound 9393 vs AVG), 389 (compound 9370 vs AVG) and 399 genes (compound 7303 vs AVG). It was uncovered that 276 genes were co-regulated by all of the exemplary invention compounds and AVG (FIG. 7C and Table 2). On the basis of GO descriptions generated by Gene Spring GX and TAIR database, the 276 genes were divided into subgroups related to their biological functions (Table 2). […] In addition, stress- and pathogenesis-related genes were among the co-regulated genes, possibly because ethylene is involved in both biotic and abiotic stresses.
Genes (1446 non-redundant loci) were selected by 1.5-fold differential expression between eto1-4 and WT as the master pool for analysis. These genes were used for comparison between chemical treatments by AVG and the exemplary invention compounds. The finalized 276 genes that are co-regulated by AVG and all of the exemplary invention compounds are shown. Locus ID also present in Nemhauser et al. (Nemhauser, et al. (2006) Cell 126, 467-475).

[1] = of 1446 genes differentially expressed between WT and eto1-4, 10 μM
[2] = ratio eto1-4 treated to eto1-4 (no treatment)

## Cc1ccc(C2CC(=O)c3cnc(NC4CCCC4)nc3C2)cc1 (stereo not shown) [Compound 9370]
Of 561 genes associated with AVG, 10 μM
  number of genes co-regulated with AVG: 389 genes
[1]
  number of genes regulated (expression reverted close to WT): 728 genes
  percentage of genes regulated (expression reverted close to WT): 50.3%
Of all genes regulated by the compound (629, 728, 650), 10 μM
  number of genes regulated specifically, not related to AVG treatment: 339 genes
[2]
  Signal Fold Change AT1G03457, unknown biological function: 2.50
  Signal Fold Change AT1G03660, unknown biological function: 2.61
  Signal Fold Change AT1G05010 ACC oxidase: 0.28
  Signal Fold Change AT1G05760 jacalin lectin protein: 3.58
  Signal Fold Change AT1G06720 expressed protein: 1.28
  Signal Fold Change AT1G07280, unknown biological function: 0.51
  Signal Fold Change AT1G07560 leucine-rich repeat protein kinase: 2.24
  Signal Fold Change AT1G08650 phosphoenolpyruvate carboxylase kinase: 2.03
  Signal Fold Change AT1G08990 glycogenin glucosyltransferase: 2.25
  Signal Fold Change AT1G09530 phytochrome interacting factor 3: 0.28
  Signal Fold Change AT1G10760 starch excess protein (SEX1): 0.33
  Signal Fold Change AT1G13430, response to cytokinin stimulus, sulfotransferase protein: 0.28
  Signal Fold Change AT1G14540 anionic peroxidase: 0.53
  Signal Fold Change AT1G15380 lactoylglutathione lyase: 2.66
  Signal Fold Change AT1G17970, unknown biological function: 2.50
  Signal Fold Change AT1G18880 proton-dependent oligopeptide transport (POT) protein: 1.93
  Signal Fold Change AT1G20190, cell wall organization and biogenesis, expansin (EXP11): 0.31
  Signal Fold Change AT1G22740 Ras-related protein (RAB7): 2.62
  Signal Fold Change AT1G23060, unknown biological function: 0.36
  Signal Fold Change AT1G26930, unknown biological function: 0.47
  Signal Fold Change AT1G27380 p21-rho-binding domain-containing protein: 1.96
  Signal Fold Change AT1G29520, unknown biological function: 1.93
  Signal Fold Change AT1G30750, unknown biological function: 2.58
  Signal Fold Change AT1G31710 copper amine oxidase: 4.67
  Signal Fold Change AT1G32410 vacuolar protein sorting 55 protein: 2.06
  Signal Fold Change AT1G32560 late embryogenesis abundant group 1 domain-containing protein: 1.59
  Signal Fold Change AT1G33470, unknown biological function: 2.21
  Signal Fold Change AT1G33790, unknown biological function: 0.18
  Signal Fold Change AT1G34040, unknown biological function: 2.08
  Signal Fold Change AT1G35350, unknown biological function: 4.97
  Signal Fold Change AT1G35612, unknown biological function: 3.56
  Signal Fold Change AT1G42470, unknown biological function: 4.28
  Signal Fold Change AT1G44800, unknown biological function: 1.93
  Signal Fold Change AT1G44830 AP2-containing transcription factor: 0.34
  Signal Fold Change AT1G48480 leucine-rich repeat trans-membrane protein kinase: 2.68
  Signal Fold Change AT1G49660 expressed protein: 0.34
  Signal Fold Change AT1G50560 cytochrome P450: 2.32
  Signal Fold Change AT1G52830 auxin-responsive protein: 5.14
  Signal Fold Change AT1G56010 transcription activator NAC1: 2.65
  Signal Fold Change AT1G56020, unknown biological function: 0.50
  Signal Fold Change AT1G58070, unknown biological function: 2.32
  Signal Fold Change AT1G59590, unknown biological function: 3.53
  Signal Fold Change AT1G59740 proton-dependent oligopeptide transport (POT) protein: 0.39
  Signal Fold Change AT1G62290 aspartyl protease protein: 0.27
  Signal Fold Change AT1G62510 lipid transfer protein: 2.17
  Signal Fold Change AT1G62620, unknown biological function: 2.47
  Signal Fold Change AT1G64200 V-ATPase E subunit: 2.41
  Signal Fold Change AT1G65510, unknown biological function: 2.74
  Signal Fold Change AT1G65920, unknown biological function: 0.31
  Signal Fold Change AT1G66230 myb transcription factor (MYB20): 2.70
  Signal Fold Change AT1G67030 zinc finger (C2H2 type) protein: 7.63
  Signal Fold Change AT1G68230, unknown biological function: 2.55
  Signal Fold Change AT1G68520 zinc finger (B-box type) protein: 2.74
  Signal Fold Change AT1G69570 Dof-type zinc finger-containing protein: 3.22
  Signal Fold Change AT1G70210 cyclin delta-1: 3.28
  Signal Fold Change AT1G70850 Bet v I allergen protein: 9.49
  Signal Fold Change AT1G70890 major latex protein: 5.19
  Signal Fold Change AT1G71030 myb transcription factor (MYB2): 5.41
  Signal Fold Change AT1G71740, unknown biological function: 2.84
  Signal Fold Change AT1G72230 plastocyanin like protein: 3.09
  Signal Fold Change AT1G73220 sugar transporter protein: 3.97
  Signal Fold Change AT1G73300 serine carboxypeptidase S10 protein: 2.36
  Signal Fold Change AT1G73310 serine carboxypeptidase S10 protein: 2.66
  Signal Fold Change AT1G73330 protease inhibitor: 4.31
  Signal Fold Change AT1G73590 auxin efflux carrier protein: 2.08
  Signal Fold Change AT1G73640, small GTPase mediated signal transduction, Ras-related GTP-binding protein: 2.10
